In article PMC11873939, “Target Identification with Live-Cell Photoaffinity Labeling and Mechanism of Action Elucidation of ARN23765, a Highly Potent CFTR Corrector” (Journal of Medicinal Chemistry, 2025):

Assays:
Type in all cases: cell-based
[1] = target: T1, F508del/R1070W-CFTR (Homo sapiens, UniProt P13569, DEL508-508/R1070W); assay: Protein maturation assay (WB, band C/(C+B)) in transfected HEK293 cells; details: HEK293, 24 h; ARN23765 10 nM, VX-661 3 μM
T1 construct: CFTR identification in pull-down studies and analysis of full-length CFTR in protein maturation assays; expressed in transfected cells; host or cells: HEK293 (transient)
Procedure: HEK293 cells were plated in 24-wells at around 80% of confluence and transfected with constructs coding for F508del-CFTR or mutants using JetPEI reagent (101000053, Polyplus Technology) following the manufacturer’s instructions. After 24 h, the correctors were added for a further 24 h. […] For binding site analysis experiments, the cells were kept either at 37 °C (Figure S8) or moved to 30 °C (Figure 9) during incubation with the selected correctors. VX-445 and corrector 3151 were mixed together as a control for maximal protein correction. DMSO (0.2%) was added to nontreated controls. After treatment, cells were lysed in RIPA buffer [50 mM tris-HCl pH 8, 150 mM NaCl, 1% NP40, 0.5% sodium deoxycolate, 0.1% SDS, 2.0 mM EDTA] and lysates were analyzed with WB, as described in the supplementary methods of the Supporting Information.

[2] = target: T2, R170G-CFTR (Homo sapiens, UniProt P13569, R170G); assay: as above; details: HEK293, 24 h, 10 nM
T2 construct: CFTR identification in pull-down studies and analysis of full-length CFTR in protein maturation assays; expressed in transfected cells; host or cells: HEK293 (transient)
Procedure: (§1) HEK293 cells were plated in 24-wells at around 80% of confluence and transfected with constructs coding for F508del-CFTR or mutants using JetPEI reagent (101000053, Polyplus Technology) following the manufacturer’s instructions. After 24 h, the correctors were added for a further 24 h. Correctors were used at the following concentrations: ARN23765 (10 nM), VX-445 (3 μM), and 3151 (10 μM). For binding site analysis experiments, the cells were kept either at 37 °C (Figure S8) or moved to 30 °C (Figure 9) during incubation with the selected correctors. VX-445 and corrector 3151 were mixed together as a control for maximal protein correction. DMSO (0.2%) was added to nontreated controls. After treatment, cells were lysed in RIPA buffer [50 mM tris-HCl pH 8, 150 mM NaCl, 1% NP40, 0.5% sodium deoxycolate, 0.1% SDS, 2.0 mM EDTA] and lysates were analyzed with WB, as described in the supplementary methods of the Supporting Information.

[3] = target: T3, F508del-CFTR double mutants (K68I, N71I, R74A, F81A, A198Y, W361A, S364F) (Homo sapiens, UniProt P13569, DEL508-508/S364F); assay: Protein maturation assay (WB) of F508del-CFTR double mutants in transfected HEK293 cells; details: F508del/S364F-CFTR; HEK293, 10 nM, 24 h
T3 construct: CFTR identification in pull-down studies and analysis of full-length CFTR in protein maturation assays; expressed in transfected cells; host or cells: HEK293 (transient, pCDNA3.1 constructs, JetPEI)
Procedure: (§2) To confirm in cells the above-predicted binding site for ARN23765, we introduced the investigated single-site mutations into the F508del-CFTR coding sequence. The rescue of double mutant proteins (F508del + new mutation) by ARN23765 was assessed with WB analysis of protein maturation and evaluation of channel activity (FLIPR assay)[40] in transfected HEK293 cells. Since correctors 3151 (type II)[16] and VX-445 (type III)[18] have been reported to bind to different CFTR sites, we used these compounds as controls. As expected, ARN23765-induced maturation of F508del-CFTR was not affected by the N71I substitution. […] Indeed, the corrector was no longer able to promote protein maturation (Figure 9A and S8A). […] The results of protein maturation analysis were mostly confirmed by functional data (Figure 9B and S8B), in which the channel activity of double-mutated proteins was evaluated in terms of the change in cell membrane potential change (FLIPR assay).
as §1, with “Information. […]” for “Information.”
(§3) Site-directed mutagenesis
(§4) Desired mutations were introduced using the QuikChange II XL site-directed mutagenesis kit (200522,
(§5) Agilent Technologies) according to the manufacturer’s instructions. F508del-CFTR pCDNA3.1 was used
(§6) as a template for the synthesis of mutated constructs K68I/F508del-CFTR, N71I/F508del-CFTR,
(§7) S364F/F508del-CFTR. The introduction of the mutation and the whole CFTR sequence were checked by
(§8) Sanger sequencing. Mutants R1070W/F508del-CFTR and R170G-
(§9) CFTR were produced as previously described.4

[4] = target: T4, F508del-CFTR double mutants (K68I, N71I, R74A, F81A, A198Y, W361A, S364F) (Homo sapiens, UniProt P13569, A198Y/DEL508-508); assay: as above; details: F508del/A198Y-CFTR; HEK293, 10 nM, 24 h
T4 construct: CFTR identification in pull-down studies and analysis of full-length CFTR in protein maturation assays; expressed in transfected cells; host or cells: HEK293 (transient, pCDNA3.1 constructs, JetPEI)
Procedure: as §2
as §1, with “Information. […]” for “Information.”
as §3, §4, §5, §6, §7, §8, §9

[5] = target: T5, F508del-CFTR double mutants (K68I, N71I, R74A, F81A, A198Y, W361A, S364F) (Homo sapiens, UniProt P13569, DEL508-508/R74A); assay: as above; details: F508del/R74A-CFTR; HEK293, 10 nM, 24 h
T5 construct: CFTR identification in pull-down studies and analysis of full-length CFTR in protein maturation assays; expressed in transfected cells; host or cells: HEK293 (transient, pCDNA3.1 constructs, JetPEI)
Procedure: as §2
as §1, with “Information. […]” for “Information.”
as §3, §4, §5, §6, §7, §8, §9

[6] = target: T6, F508del-CFTR double mutants (K68I, N71I, R74A, F81A, A198Y, W361A, S364F) (Homo sapiens, UniProt P13569, DEL508-508/N71I); assay: as above; details: F508del/N71I-CFTR; HEK293, 10 nM, 24 h
T6 construct: CFTR identification in pull-down studies and analysis of full-length CFTR in protein maturation assays; expressed in transfected cells; host or cells: HEK293 (transient, pCDNA3.1 constructs, JetPEI)
Procedure: as §2
as §1, with “Information. […]” for “Information.”
as §3, §4, §5, §6, §7, §8, §9

[7] = target: T7, F508del-CFTR double mutants (K68I, N71I, R74A, F81A, A198Y, W361A, S364F) (Homo sapiens, UniProt P13569, DEL508-508/F81A); assay: as above; details: F508del/F81A-CFTR; HEK293, 10 nM, 24 h
T7 construct: CFTR identification in pull-down studies and analysis of full-length CFTR in protein maturation assays; expressed in transfected cells; host or cells: HEK293 (transient, pCDNA3.1 constructs, JetPEI)
Procedure: as §2
as §1, with “Information. […]” for “Information.”
as §3, §4, §5, §6, §7, §8, §9

T6 sequence (P13569 with tags, fused parts or gaps N71I/DEL508-508): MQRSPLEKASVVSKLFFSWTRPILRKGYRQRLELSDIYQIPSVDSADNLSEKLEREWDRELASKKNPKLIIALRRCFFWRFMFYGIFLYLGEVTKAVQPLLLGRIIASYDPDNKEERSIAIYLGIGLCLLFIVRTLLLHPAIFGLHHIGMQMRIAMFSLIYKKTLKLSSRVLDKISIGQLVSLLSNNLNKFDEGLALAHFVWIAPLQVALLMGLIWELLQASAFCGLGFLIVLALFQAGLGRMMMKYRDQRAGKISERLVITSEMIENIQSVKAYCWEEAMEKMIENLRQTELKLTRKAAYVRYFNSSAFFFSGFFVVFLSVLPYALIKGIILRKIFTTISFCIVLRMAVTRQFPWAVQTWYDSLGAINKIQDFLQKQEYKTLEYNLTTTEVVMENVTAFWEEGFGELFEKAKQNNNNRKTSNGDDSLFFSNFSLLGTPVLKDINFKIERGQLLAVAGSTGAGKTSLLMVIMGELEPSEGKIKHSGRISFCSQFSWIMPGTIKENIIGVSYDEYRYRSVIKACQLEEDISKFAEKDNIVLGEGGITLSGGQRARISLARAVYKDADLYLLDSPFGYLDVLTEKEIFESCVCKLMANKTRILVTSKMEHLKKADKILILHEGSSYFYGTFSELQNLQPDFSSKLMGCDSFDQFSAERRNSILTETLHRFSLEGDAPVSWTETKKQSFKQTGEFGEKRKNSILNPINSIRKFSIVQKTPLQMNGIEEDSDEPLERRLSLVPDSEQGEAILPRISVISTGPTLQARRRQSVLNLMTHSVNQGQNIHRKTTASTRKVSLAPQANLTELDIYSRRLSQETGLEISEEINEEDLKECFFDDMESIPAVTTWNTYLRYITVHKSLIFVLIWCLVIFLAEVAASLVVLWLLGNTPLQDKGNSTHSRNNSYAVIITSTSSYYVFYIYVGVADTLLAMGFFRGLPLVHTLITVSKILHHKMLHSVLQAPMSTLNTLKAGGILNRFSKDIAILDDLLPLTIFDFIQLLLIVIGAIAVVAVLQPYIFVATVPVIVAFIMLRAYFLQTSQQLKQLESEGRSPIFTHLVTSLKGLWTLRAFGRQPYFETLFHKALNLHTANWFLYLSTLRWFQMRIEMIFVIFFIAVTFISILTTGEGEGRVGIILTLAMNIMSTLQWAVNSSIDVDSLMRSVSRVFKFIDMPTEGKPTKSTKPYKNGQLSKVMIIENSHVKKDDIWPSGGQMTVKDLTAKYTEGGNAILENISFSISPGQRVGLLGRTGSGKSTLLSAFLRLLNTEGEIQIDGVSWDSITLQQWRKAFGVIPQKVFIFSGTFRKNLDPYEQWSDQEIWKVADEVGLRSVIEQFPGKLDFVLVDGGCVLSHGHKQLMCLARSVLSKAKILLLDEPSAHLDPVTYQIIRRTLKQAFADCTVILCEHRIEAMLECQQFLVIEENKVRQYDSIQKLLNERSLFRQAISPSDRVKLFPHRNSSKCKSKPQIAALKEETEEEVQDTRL
T7 sequence (P13569 with tags, fused parts or gaps F81A/DEL508-508): as the sequence (P13569 with tags, fused parts or gaps N71I/DEL508-508) above, with I71N, F81A counted along it
T5 sequence (P13569 with tags, fused parts or gaps R74A/DEL508-508): as the sequence (P13569 with tags, fused parts or gaps N71I/DEL508-508) above, with I71N, R74A counted along it
T1 sequence (P13569 with tags, fused parts or gaps DEL508-508/R1070W): as the sequence (P13569 with tags, fused parts or gaps N71I/DEL508-508) above, with I71N, R1069W counted along it
T4 sequence (P13569 with tags, fused parts or gaps A198Y/DEL508-508): as the sequence (P13569 with tags, fused parts or gaps N71I/DEL508-508) above, with I71N, A198Y counted along it
T2 sequence (P13569 whole entry R170G): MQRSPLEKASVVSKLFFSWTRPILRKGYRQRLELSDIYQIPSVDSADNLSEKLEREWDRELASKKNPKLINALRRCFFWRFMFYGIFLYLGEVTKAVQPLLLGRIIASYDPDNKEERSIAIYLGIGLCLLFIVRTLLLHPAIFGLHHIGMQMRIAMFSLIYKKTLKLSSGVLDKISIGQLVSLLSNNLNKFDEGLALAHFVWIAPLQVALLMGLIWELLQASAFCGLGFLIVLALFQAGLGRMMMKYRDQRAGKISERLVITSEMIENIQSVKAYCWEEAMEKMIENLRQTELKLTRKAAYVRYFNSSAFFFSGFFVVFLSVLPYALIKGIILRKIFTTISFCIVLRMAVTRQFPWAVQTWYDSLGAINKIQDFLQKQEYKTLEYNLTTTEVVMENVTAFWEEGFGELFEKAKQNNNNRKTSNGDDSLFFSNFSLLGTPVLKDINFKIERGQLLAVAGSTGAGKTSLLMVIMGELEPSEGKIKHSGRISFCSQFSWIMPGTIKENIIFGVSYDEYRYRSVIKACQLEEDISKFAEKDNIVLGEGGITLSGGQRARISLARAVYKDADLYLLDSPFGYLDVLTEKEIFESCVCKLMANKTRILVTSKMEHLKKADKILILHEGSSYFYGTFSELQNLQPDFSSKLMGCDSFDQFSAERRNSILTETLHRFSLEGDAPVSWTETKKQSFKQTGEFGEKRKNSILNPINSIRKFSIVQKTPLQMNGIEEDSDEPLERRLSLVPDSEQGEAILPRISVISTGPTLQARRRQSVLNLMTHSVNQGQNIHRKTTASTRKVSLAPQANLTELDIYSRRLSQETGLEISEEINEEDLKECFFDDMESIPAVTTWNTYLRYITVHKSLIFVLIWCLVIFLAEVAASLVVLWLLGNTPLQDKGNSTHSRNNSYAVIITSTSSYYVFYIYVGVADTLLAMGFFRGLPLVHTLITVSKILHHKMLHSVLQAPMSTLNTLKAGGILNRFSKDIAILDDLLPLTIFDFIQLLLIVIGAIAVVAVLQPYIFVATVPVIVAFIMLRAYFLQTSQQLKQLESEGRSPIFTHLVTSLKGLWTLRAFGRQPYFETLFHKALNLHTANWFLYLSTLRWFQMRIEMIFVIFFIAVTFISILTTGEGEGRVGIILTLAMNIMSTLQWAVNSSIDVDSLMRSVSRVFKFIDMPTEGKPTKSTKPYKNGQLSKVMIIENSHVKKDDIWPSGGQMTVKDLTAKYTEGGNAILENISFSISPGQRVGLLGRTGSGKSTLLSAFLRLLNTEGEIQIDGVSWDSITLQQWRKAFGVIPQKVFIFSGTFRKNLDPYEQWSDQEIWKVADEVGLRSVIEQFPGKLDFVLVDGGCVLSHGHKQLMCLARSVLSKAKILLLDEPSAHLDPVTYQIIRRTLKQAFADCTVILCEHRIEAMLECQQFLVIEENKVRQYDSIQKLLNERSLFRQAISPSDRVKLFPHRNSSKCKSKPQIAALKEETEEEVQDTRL
T3 sequence (P13569 with tags, fused parts or gaps S364F/DEL508-508): as the sequence (P13569 with tags, fused parts or gaps N71I/DEL508-508) above, with I71N, S364F counted along it

Q: With `CN(C(=O)c1cccc(-n2nc(C(F)(F)F)c3c2[C@@H](Oc2ccc(C(=O)O)cc2)CCC3)c1)c1ccc2c(c1)OC(F)(F)O2` [ARN23765] as the compound, how does the F508del/R1070W protein maturation [1] read?
A: further enhanced

Q: And the R170G-CFTR maturation [2]?
A: improving

Q: What about the “Effect of second mutation on corrector-induced maturation of F508del-CFTR” value (shortened to “Effect of second mutation”) [3] of the same compound?
A: only slightly reduced

Q: And the “Effect of second mutation” value [4]?
A: markedly reduced or abolished

Q: And the “Effect of second mutation” value [5]?
A: only slightly reduced

Q: What about the “Effect of second mutation” value [6] of the same compound?
A: not affected

Q: And the “Effect of second mutation” value [7]?
A: markedly reduced or abolished
